Measured values as given in ChEMBL document CHEMBL1128855, “Design and synthesis of an antitumor prodrug released by the reaction with sulfhydryl compounds” (Bioorg Med Chem Lett, 1995).
In brackets after ≈: the same amount, converted by molar mass.

How the values were obtained:
HeLa = test: Cytotoxic activity against HeLa S3 cells; assay type: functional, cell-based; conditions: Homo sapiens
L1210 (1565) [1] = test: Cytotoxic activity against L-1210 parental cell line; assay type: functional, cell-based, Mus musculus
L1210 (1565) [2] = test: Cytotoxic activity against adriamycin (ADR) resistant L-1210 cell line; assay type: functional, cell-based, Mus musculus
[3] = Relative resistance value of Adriamycin resistant L-1210/L-1210 parental cell line; assay type: functional
L1210 (1565) [4] = test: cytotoxic activity against adriamycin (ADR) resistant L-1210 cell line; assay type: functional, cell-based, Mus musculus

Row | Compound | IC50 (HeLa) [µg/mL] | IC50 (L1210 (1565) [1]) [nM ml-1] | IC50 (L1210 (1565) [2]) [nM ml-1] | Ratio [3] | IC50 (L1210 (1565) [4]) [nM ml-1]
1 | C/C=C/C(=O)OCC1=CCC(C)(C)CC1=O | 4.7 (≈ 21.1 µM) |  |  |  | 
2 | CC(=O)OCC1=CCC(C)(C)CC1=O | 23.5 (≈ 120 µM) |  |  |  | 
3 | COc1cccc2c1C(=O)c1c(O)c3c(c(O)c1C2=O)C[C@@](O)(C(C)=O)C[C@@H]3OC1CC(NC(=O)OCC2=CCC(C)(C)CC2=O)C(O)C(C)O1 (some centres undefined) | 0.0096 (≈ 0.0136 µM) | 0.038 | 0.14 | 3.7 | 
4 | CC1(C)CC=C(CO)C(=O)C1 | > 100 |  |  |  | 
5 | CC1(C)CC=C(CI)C(=O)C1 | 2.3 (≈ 8.71 µM) |  |  |  | 
6 | COc1cccc2c1C(=O)c1c(O)c3c(c(O)c1C2=O)C[C@@](O)(C(C)=O)C[C@@H]3O[C@H]1C[C@H](N)[C@H](O)[C@H](C)O1.Cl [DAUNORUBICIN HYDROCHLORIDE] |  | 0.016 | 0.147 | 9.2 | 
7 | COc1cccc2c1C(=O)c1c(O)c3c(c(O)c1C2=O)C[C@@](O)(C(=O)CO)C[C@@H]3O[C@H]1C[C@H](N)[C@H](O)[C@H](C)O1 [DOXORUBICIN] |  | 0.022 |  | 14.1 | 0.315
